Measured values published in PMC9851200, “Multiparameter phenotypic screening for endogenous TFEB and TFE3 translocation identifies novel chemical series modulating lysosome function” (Autophagy, 2022).
Read-outs that look alike come from different tables or passages of the source.

What was measured:
Experiment in all cases: biochemical
Type in all cases: binding
[1] = biological target: cellular kinases of SH-SY5Y cells (Homo sapiens, UniProt O00418); settings: 2µM; SH-SY5Y cells; Labeling Site ATP; YIKYNSNSGFVR; read-out: KiNativ in-cell binding, % Inhibition, eEF2K
Source text: (§1) As KINOMEscan is an in vitro assay, and as different cell types have variable kinase expression profiles we sought to determine the kinase binding profile in our SH-SY5Y TFEB-relocalization cell model. […] Bound kinases were pulled down and analyzed by mass spectrometry to determine the in situ kinase binding profile for each compound.

[2] = biological target: T1, cellular kinases of SH-SY5Y cells (Homo sapiens, UniProt O14936); settings: 2µM; SH-SY5Y cells; Labeling Site Lys1; ETGQQFAVKIVDVAK; read-out: KiNativ in-cell binding, % Inhibition, CASK
T1 construct: endogenous in cells; host or cells: SH-SY5Y
Source text: as §1

[3] = biological target: cellular kinases of SH-SY5Y cells (Homo sapiens, UniProt P48736); settings: 2µM; SH-SY5Y cells; Labeling Site ATP; KKPLWLEFK; read-out: KiNativ in-cell binding, % Inhibition, PIK3CG
cellular kinases of SH-SY5Y cells (Homo sapiens, UniProt P48736), sequence (P48736 whole entry): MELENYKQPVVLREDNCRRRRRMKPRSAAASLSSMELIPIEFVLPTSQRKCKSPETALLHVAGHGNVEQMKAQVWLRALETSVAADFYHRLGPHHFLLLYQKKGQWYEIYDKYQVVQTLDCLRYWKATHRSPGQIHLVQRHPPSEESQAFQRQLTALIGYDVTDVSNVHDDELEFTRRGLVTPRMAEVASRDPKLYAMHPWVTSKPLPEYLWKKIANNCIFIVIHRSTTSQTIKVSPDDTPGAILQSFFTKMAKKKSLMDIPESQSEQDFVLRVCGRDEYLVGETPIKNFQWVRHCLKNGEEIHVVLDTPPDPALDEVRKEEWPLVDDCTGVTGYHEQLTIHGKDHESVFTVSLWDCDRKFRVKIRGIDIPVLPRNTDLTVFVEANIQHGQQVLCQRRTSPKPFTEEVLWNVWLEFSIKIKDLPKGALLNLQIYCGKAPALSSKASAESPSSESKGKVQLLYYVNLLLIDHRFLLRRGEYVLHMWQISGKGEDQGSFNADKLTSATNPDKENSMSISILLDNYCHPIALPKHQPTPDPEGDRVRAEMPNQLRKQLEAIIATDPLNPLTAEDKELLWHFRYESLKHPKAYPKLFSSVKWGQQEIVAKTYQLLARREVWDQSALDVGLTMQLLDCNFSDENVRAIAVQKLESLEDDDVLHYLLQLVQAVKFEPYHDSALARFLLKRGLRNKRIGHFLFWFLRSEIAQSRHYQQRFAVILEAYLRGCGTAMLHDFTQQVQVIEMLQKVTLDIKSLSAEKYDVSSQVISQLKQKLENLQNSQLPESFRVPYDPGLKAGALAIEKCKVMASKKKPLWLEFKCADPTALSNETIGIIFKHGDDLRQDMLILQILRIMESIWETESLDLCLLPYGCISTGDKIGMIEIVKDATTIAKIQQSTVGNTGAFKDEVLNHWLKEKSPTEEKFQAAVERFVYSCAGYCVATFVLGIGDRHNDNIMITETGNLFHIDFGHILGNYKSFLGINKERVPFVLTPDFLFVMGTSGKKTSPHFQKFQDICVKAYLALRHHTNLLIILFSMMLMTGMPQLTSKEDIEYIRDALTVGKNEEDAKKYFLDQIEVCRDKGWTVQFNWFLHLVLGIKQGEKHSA
Source text: as §1

[4] = biological target: T2, cellular kinases of SH-SY5Y cells (Homo sapiens, UniProt Q13188); settings: 2µM; SH-SY5Y cells; Labeling Site Lys1; ESGQVVAIKQVPVESDLQEIIK; read-out: KiNativ in-cell binding, % Inhibition, STK3/MST2
T2 construct: endogenous in cells; host or cells: SH-SY5Y
T2 sequence (Q13188 whole entry): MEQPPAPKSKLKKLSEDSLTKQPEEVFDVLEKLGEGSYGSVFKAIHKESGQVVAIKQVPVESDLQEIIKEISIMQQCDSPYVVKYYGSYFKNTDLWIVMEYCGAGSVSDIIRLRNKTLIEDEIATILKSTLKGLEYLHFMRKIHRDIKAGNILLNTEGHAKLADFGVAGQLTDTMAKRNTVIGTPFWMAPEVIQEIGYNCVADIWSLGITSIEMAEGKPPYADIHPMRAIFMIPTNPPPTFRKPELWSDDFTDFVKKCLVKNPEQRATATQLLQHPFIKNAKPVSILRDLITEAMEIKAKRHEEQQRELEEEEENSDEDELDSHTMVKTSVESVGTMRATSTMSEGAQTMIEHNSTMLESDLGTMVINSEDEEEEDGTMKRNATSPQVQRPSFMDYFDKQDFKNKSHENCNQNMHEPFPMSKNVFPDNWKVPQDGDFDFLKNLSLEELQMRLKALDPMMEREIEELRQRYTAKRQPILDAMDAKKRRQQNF
Source text: as §1

[5] = biological target: cellular kinases of SH-SY5Y cells (Homo sapiens, UniProt Q13464); settings: 2µM; SH-SY5Y cells; Labeling Site Other; KLQLELNQER; read-out: KiNativ in-cell binding, % Inhibition, ROCK1
Source text: as §1

[6] = biological target: T3, cellular kinases of SH-SY5Y cells (Homo sapiens, UniProt Q15208); settings: 2µM, SH-SY5Y cells, read-out: KiNativ in-cell binding, % Inhibition, STK38/NDR1
T3 construct: endogenous in cells; host or cells: SH-SY5Y
T3 sequence (Q15208 whole entry): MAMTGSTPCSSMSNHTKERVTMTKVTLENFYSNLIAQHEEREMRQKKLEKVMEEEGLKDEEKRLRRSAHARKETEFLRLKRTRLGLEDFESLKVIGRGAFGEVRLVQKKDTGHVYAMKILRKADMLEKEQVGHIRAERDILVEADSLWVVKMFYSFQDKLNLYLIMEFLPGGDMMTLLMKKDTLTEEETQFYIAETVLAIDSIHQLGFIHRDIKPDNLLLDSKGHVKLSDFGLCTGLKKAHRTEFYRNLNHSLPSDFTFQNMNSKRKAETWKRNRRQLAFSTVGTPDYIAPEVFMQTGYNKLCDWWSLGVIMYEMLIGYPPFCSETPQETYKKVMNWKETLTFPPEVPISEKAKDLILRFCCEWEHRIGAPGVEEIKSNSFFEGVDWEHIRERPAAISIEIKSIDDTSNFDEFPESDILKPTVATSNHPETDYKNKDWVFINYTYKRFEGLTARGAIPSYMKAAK
Source text: as §1

[7] = biological target: T4, cellular kinases of SH-SY5Y cells (Homo sapiens, UniProt Q15831); settings: 2µM; SH-SY5Y cells; Labeling Site Lys2; DIKPGNLLLTTGGTLK; read-out: KiNativ in-cell binding, % Inhibition, STK11/LKB1
T4 construct: endogenous in cells; host or cells: SH-SY5Y
T4 sequence (Q15831 whole entry): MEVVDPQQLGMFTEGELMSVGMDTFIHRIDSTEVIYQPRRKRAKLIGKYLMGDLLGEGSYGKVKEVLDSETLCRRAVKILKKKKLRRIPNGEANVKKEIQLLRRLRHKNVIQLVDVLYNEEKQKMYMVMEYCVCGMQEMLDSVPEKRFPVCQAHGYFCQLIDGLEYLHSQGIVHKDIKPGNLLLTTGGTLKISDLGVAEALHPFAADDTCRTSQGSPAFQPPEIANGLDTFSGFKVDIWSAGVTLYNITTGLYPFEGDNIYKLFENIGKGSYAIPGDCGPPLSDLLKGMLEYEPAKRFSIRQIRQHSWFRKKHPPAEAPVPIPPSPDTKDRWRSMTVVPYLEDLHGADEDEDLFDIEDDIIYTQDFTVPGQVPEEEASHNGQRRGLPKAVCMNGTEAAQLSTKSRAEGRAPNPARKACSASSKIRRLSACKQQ
Source text: as §1

[8] = biological target: T5, cellular kinases of SH-SY5Y cells (Homo sapiens, UniProt Q58A45); settings: 2µM, SH-SY5Y cells, labeling site ATP
T5 construct: endogenous in cells; host or cells: SH-SY5Y
T5 sequence (Q58A45 whole entry): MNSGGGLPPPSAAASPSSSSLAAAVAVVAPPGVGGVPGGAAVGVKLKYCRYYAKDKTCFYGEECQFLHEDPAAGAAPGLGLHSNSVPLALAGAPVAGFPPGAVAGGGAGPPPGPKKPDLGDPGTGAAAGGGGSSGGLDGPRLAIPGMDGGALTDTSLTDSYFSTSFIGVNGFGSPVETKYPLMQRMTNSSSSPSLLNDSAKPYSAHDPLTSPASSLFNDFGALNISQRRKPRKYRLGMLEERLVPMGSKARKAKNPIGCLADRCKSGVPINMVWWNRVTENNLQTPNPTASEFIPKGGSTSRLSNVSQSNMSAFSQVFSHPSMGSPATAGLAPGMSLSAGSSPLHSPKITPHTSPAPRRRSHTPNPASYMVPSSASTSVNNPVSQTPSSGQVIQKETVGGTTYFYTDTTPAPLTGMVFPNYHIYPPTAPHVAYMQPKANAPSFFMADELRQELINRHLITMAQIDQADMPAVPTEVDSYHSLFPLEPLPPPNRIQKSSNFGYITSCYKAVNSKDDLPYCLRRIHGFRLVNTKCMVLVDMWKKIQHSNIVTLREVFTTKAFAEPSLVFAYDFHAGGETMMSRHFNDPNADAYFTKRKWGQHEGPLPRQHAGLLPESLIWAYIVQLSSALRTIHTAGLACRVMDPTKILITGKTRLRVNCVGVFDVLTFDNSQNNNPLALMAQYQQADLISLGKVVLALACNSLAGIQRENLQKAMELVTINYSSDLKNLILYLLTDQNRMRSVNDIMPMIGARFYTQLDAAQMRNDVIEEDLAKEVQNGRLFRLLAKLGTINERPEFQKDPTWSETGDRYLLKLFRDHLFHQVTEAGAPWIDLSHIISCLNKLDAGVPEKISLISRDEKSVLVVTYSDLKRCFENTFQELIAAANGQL
Source text: as §1

[9] = biological target: T6, cellular kinases of SH-SY5Y cells (Homo sapiens, UniProt Q8TD19); settings: 2µM, SH-SY5Y cells, read-out: KiNativ in-cell binding, % Inhibition, NEK9
T6 construct: endogenous in cells; host or cells: SH-SY5Y
T6 sequence (Q8TD19 1-979): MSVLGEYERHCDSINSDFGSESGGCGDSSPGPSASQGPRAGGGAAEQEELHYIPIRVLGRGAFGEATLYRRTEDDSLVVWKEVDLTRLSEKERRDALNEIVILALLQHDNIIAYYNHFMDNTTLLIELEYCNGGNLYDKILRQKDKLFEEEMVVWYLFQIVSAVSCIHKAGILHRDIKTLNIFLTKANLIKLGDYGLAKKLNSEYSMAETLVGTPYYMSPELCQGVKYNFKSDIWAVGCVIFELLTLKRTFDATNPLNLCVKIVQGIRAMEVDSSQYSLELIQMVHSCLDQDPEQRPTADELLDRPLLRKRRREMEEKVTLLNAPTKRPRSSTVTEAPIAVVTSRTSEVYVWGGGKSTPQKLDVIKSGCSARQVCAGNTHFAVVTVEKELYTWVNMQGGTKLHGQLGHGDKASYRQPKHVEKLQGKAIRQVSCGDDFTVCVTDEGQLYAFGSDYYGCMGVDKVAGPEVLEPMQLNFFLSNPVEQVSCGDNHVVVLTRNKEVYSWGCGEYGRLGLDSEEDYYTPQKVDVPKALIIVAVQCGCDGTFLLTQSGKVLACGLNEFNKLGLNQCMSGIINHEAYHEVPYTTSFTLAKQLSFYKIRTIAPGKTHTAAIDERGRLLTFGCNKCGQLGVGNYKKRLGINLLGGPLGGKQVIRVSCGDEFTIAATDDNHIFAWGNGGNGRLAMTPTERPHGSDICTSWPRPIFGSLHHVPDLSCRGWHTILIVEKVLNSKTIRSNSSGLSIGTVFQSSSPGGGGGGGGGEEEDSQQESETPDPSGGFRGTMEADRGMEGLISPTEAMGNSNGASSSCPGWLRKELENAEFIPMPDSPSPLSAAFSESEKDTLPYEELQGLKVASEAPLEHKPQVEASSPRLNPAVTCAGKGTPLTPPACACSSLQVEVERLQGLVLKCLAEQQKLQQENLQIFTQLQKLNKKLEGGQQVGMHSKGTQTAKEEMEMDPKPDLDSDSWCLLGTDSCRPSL
Source text: as §1

[10] = biological target: cellular kinases of SH-SY5Y cells (Homo sapiens, UniProt Q99759); settings: 2µM; SH-SY5Y cells; Labeling Site Lys1; ELASKQVQFDPDSPETSKEVSALECEIQLLK; read-out: KiNativ in-cell binding, % Inhibition, MAP3K3
cellular kinases of SH-SY5Y cells (Homo sapiens, UniProt Q99759), sequence (Q99759 whole entry): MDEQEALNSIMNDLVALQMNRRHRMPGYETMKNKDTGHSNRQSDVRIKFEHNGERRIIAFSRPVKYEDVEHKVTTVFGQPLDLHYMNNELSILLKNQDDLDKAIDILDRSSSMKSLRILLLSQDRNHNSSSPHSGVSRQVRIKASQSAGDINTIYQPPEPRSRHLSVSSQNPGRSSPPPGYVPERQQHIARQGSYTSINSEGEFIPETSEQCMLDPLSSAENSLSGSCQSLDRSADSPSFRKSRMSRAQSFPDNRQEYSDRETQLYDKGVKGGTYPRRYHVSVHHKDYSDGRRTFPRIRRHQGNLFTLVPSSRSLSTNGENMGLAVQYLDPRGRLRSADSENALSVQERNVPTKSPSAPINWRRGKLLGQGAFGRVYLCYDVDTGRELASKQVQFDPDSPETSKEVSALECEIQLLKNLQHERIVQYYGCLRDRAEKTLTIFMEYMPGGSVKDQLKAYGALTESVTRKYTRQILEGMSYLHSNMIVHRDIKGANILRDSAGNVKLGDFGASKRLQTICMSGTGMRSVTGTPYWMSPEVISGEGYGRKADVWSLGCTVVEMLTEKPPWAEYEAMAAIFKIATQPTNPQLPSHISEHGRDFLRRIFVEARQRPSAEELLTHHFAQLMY
Source text: as §1

[11] = biological target: T7, cellular kinases of SH-SY5Y cells (Homo sapiens, UniProt Q9Y572); settings: 2µM; SH-SY5Y cells; Labeling Site Lys2; DLKPSNVLLDPELHVK; read-out: KiNativ in-cell binding, % Inhibition, RIPK3
T7 construct: endogenous in cells; host or cells: SH-SY5Y
T7 sequence (Q9Y572 whole entry): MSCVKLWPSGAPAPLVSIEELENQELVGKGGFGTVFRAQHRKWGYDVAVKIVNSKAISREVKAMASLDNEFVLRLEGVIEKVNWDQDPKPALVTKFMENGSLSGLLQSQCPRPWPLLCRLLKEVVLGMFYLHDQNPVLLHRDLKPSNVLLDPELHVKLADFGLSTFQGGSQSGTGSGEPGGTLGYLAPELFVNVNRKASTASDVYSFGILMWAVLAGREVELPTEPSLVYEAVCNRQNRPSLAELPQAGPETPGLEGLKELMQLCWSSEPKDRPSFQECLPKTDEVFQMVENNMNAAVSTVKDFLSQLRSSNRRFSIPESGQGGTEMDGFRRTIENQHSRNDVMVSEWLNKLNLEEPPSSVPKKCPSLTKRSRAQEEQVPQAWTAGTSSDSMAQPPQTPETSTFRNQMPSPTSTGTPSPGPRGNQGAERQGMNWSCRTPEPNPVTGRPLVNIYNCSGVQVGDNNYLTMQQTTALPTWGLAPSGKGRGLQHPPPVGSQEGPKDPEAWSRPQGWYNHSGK
Source text: as §1

[12] = biological target: T8, cellular kinases of SH-SY5Y cells (Homo sapiens, UniProt Q9Y6E0); settings: 2µM; SH-SY5Y cells; Labeling Site Lys2; DIKAANVLLSEHGEVK; read-out: KiNativ in-cell binding, % Inhibition, STK24/MST3
T8 construct: endogenous in cells; host or cells: SH-SY5Y
T8 sequence (Q9Y6E0 whole entry): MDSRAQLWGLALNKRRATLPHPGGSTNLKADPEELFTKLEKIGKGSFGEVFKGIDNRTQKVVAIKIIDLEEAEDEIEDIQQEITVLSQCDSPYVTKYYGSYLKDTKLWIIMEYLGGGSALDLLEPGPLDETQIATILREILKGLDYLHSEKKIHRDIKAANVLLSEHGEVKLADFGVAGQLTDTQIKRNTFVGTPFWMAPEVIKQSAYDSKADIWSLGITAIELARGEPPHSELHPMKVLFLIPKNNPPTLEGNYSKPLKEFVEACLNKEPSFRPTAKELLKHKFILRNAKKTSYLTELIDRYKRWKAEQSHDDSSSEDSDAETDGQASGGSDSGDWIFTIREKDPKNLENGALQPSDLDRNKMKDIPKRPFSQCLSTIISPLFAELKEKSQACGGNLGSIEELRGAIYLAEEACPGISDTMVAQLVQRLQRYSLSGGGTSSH
Source text: as §1

## Cc1cccc(-c2nc(Nc3ccc4ncsc4c3)c3ccccc3n2)n1 [NK140]
[1]
  inhibition at 2 µM: 26%
[2]
  inhibition at 2 µM: 43%
[3]
  inhibition at 2 µM: 27.6%
[4]
  inhibition at 2 µM: 31.6%
[5]
  inhibition at 2 µM: 1.3%
[6]; Labeling Site Lys1, DTGHVYAMKILR
  inhibition at 2 µM: -36.9%
[6]; Labeling Site Lys2, DIKPDNLLLDSK
  inhibition at 2 µM: 20.9%
[7]
  inhibition at 2 µM: 58%
[8]; peptide IQKSSNFGYITSCYK
  KiNativ in-cell binding, PAN3: -119.6
[8]; peptide VMDPTKILITGK
  KiNativ in-cell binding, PAN3: -99.0
[9]; Labeling Site Activation Loop, LGDYGLAKK
  inhibition at 2 µM: 0.758%
[9]; Labeling Site Lys1, RTEDDSLVVWKEVDLTR
  inhibition at 2 µM: -12.8%
[9]; Labeling Site Lys2, DIKTLNIFLTK
  inhibition at 2 µM: -8%
[10]
  inhibition at 2 µM: 12.5%
[11]
  inhibition at 2 µM: 26.1%
[12]
  inhibition at 2 µM: 28.7%
